From US20080175794A1, “Substituted Pyridazinyl- and Pyrimidinyl-Quinolin-4-Ylamine Analogues” (NEUROGEN CORPORATION, priority 2005, published 2008)

Target: T1, human capsaicin receptor (Homo sapiens, UniProt Q8NER1)
T1 construct: expressed in transfected cells
Assay: Calcium mobilization assay, determination of antagonist activity (Example 6)
Type: cell-based
Settings: Table III; assay provided in Example 6; cells expressing human capsaicin receptor, capsaicin at EC50
Procedure: A cDNA encoding full length human capsaicin receptor (SEQ ID NO:1, 2 or 3 of U.S. Pat. No. 6,482,611) is subcloned in the plasmid pBK-CMV (Stratagene, La Jolla, Calif.) for recombinant expression in mammalian cells.
Human embryonic kidney (HEK293) cells are transfected with the pBK-CMV expression construct encoding the full length human capsaicin receptor using standard methods. The transfected cells are selected over two weeks in media containing G418 (400 μg/ml) to obtain a pool of stably transfected cells. Independent clones are isolated from this pool by limiting dilution to obtain clonal stable cell lines for use in subsequent experiments.
Cells transfected with expression plasmids (as described in Example 4) and thereby expressing human capsaicin receptor are seeded and grown to 70-90% confluency in FALCON black-walled, clear-bottomed 96-well plates (#3904, BECTON-DICKINSON, Franklin Lakes, N.J.). The culture medium is emptied from the 96 well plates and FLUO-3 AM calcium sensitive dye (Molecular Probes, Eugene, Oreg.) is added to each well (dye solution: 1 mg FLUO-3 AM, 440 μL DMSO and 440 μl 20% pluronic acid in DMSO, diluted 1:250 in Krebs-Ringer HEPES (KRH) buffer (25 mM HEPES, […], 0.96 mM NaH2PO4, 1 mM MgSO4, 2 mM CaCl2, 5 mM glucose, 1 mM probenecid, pH 7.4), 50 μl diluted solution per well). Plates are covered with aluminum foil and incubated at 37° C. for 1-2 hours in an environment containing 5% CO2. After the incubation, the dye is emptied from the plates, and the cells are washed once with KRH buffer, and resuspended in KRH buffer.
To measure the ability of a test compound to agonize or antagonize a calcium mobilization response in cells expressing capsaicin receptors to capsaicin or other vanilloid agonist, the EC50 of the agonist capsaicin is first determined. An additional 20 μl of KRH buffer and 1 μl DMSO is added to each well of cells, prepared as described above. 100 μl capsaicin in KRH buffer is automatically transferred by the FLIPR instrument to each well. Capsaicin-induced calcium mobilization is monitored using either FLUOROSKAN ASCENT (Labsystems; Franklin, Mass.) or FLIPR (fluorometric imaging plate reader system; Molecular Devices, Sunnyvale, Calif.) instruments. Data obtained between 30 and 60 seconds after agonist application are used to generate an 8-point concentration response curve, with final capsaicin concentrations of 1 nM to 3 μM. KALEIDAGRAPH software (Synergy Software, Reading, Pa.) is used to fit the data to the equation: […]
Test compounds are dissolved in DMSO, diluted in 20 μl KRH buffer so that the final concentration of test compounds in the assay well is between […] and 5 μM, and added to cells prepared as described above. The 96 well plates containing prepared cells and test compounds are incubated in the dark at room temperature for 0.5 to 6 hours. It is important that the incubation not continue beyond 6 hours. Just prior to determining the fluorescence response, 100 μl capsaicin in KRH buffer at twice the EC50 concentration determined as described above is automatically added by the FLIPR instrument to each well of the 96 well plate for a final sample volume of 200 μl and a final capsaicin concentration equal to the EC50. The final concentration of test compounds in the assay wells is between 1 μM and 5 μM. […] The concentration of antagonist required to provide a 50% decrease, relative to the response observed in the presence of capsaicin and without antagonist, is the IC50 for the antagonist, and is preferably below 1 micromolar, 100 nanomolar, 10 nanomolar or 1 nanomolar.

T1 sequence (Q8NER1 whole entry): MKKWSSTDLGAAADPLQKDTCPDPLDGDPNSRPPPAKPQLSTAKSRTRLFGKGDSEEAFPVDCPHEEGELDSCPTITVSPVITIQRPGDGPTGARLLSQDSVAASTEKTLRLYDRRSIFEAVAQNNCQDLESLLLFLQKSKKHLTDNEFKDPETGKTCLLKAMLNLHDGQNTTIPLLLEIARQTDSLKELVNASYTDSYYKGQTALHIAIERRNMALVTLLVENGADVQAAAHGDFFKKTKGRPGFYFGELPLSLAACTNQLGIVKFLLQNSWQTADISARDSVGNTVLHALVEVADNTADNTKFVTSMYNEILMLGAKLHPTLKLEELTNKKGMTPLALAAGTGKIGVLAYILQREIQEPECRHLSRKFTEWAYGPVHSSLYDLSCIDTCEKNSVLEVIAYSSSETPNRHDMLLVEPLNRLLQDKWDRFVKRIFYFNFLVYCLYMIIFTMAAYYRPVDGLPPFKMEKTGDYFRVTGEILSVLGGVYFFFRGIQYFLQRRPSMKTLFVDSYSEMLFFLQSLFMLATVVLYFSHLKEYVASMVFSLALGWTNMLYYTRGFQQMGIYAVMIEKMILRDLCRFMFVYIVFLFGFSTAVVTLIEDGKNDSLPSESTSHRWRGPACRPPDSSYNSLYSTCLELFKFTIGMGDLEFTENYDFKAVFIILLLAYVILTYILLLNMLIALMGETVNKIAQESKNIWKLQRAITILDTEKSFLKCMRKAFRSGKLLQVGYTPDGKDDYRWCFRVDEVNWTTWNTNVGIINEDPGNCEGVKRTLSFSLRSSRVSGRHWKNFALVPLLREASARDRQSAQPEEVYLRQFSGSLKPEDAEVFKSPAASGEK

Compound	IC50
CN(CCCO)c1cc(C(F)(F)F)c(-c2cnc3c(Nc4ccc(C(F)(F)F)cn4)ccnc3n2)nn1 [Compound 137, 3-{methyl[5-(trifluoromethyl)-6-(8-{[5-(trifluoromethyl)pyridin-2-yl]amino}pyrido[2,3-b]pyrazin-3-yl)pyridazin-3-yl]amino}propan-1-ol]	< 1 µM
CC(C)CCNc1cc(C(F)(F)F)c(-c2cnc3c(Nc4ccc(C(F)(F)F)cn4)ccnc3n2)nn1 [Compound 106, 3-{6-[(3-methylbutyl)amino]-4-(trifluoromethyl)pyridazin-3-yl}-N-[5-(trifluoromethyl)pyridin-2-yl]pyrido[2,3-b]pyrazin-8-amine]	< 1 µM
N#Cc1cc(C(F)(F)F)c(-c2cnc3c(Nc4ccc(C(F)(F)F)cn4)ccnc3n2)nn1 [Compound 55, 5-(trifluoromethyl)-6-(8-{[5-(trifluoromethyl)pyridin-2-yl]amino}pyrido[2,3-b]pyrazin-3-yl)pyridazine-3-carbonitrile]	< 1 µM
NC(=O)CNc1cc(C(F)(F)F)c(-c2cnc3c(Nc4ccc(C(F)(F)F)cn4)ccnc3n2)nn1 [Compound 113, N2-[5-(trifluoromethyl)-6-(8-{[5-(trifluoromethyl)pyridin-2-yl]amino}pyrido[2,3-b]pyrazin-3-yl)pyridazin-3-yl]glycinamide]	< 1 µM
OCCCCCNc1cc(C(F)(F)F)c(-c2cnc3c(Nc4ccc(C(F)(F)F)cn4)ccnc3n2)nn1 [Compound 115, 5-{[5-(trifluoromethyl)-6-(8-{[5-(trifluoromethyl)pyridin-2-yl]amino}pyrido[2,3-b]pyrazin-3-yl)pyridazin-3-yl]amino}pentan-1-ol]	< 1 µM
FC(F)(F)c1ccc(Nc2ccnc3nc(-c4nnc(NC5CCCC5)cc4C(F)(F)F)cnc23)nc1 [Compound 109, 3-[6-(cyclopentylamino)-4-(trifluoromethyl)pyridazin-3-yl]-N-[5-(trifluoromethyl)pyridin-2-yl]pyrido[2,3-b]pyrazin-8-amine]	< 1 µM
FC(F)(F)c1ccc(Nc2ccnc3nc(-c4nnc(NC5CCC5)cc4C(F)(F)F)cnc23)nc1 [Compound 107, 3-[6-(cyclobutylamino)-4-(trifluoromethyl)pyridazin-3-yl]-N-[5-(trifluoromethyl)pyridin-2-yl]pyrido[2,3-b]pyrazin-8-amine]	< 1 µM
CN(C)CCN(C)c1cc(C(F)(F)F)c(-c2cnc3c(Nc4ccc(C(F)(F)F)cn4)ccnc3n2)nn1 [Compound 150, N,N,N′-trimethyl-N′-[5-(trifluoromethyl)-6-(8-{[5-(trifluoromethyl)pyridin-2-yl]amino}pyrido[2,3-b]pyrazin-3-yl)pyridazin-3-yl]ethane-1,2-diamine]	< 1 µM
COCCCNc1cc(C(F)(F)F)c(-c2cnc3c(Nc4ccc(C(F)(F)F)cn4)ccnc3n2)nn1 [Compound 164, 3-{6-[(3-methoxypropyl)amino]-4-(trifluoromethyl)pyridazin-3-yl}-N-[5-(trifluoromethyl)pyridin-2-yl]pyrido[2,3-b]pyrazin-8-amine]	< 1 µM
COC1CCN(c2cc(C(F)(F)F)c(-c3cnc4c(Nc5ccc(C(F)(F)F)cn5)ccnc4n3)nn2)CC1 [Compound 188, 3-[6-(4-methoxypiperidin-1-yl)-4-(trifluoromethyl)pyridazin-3-yl]-N-[5-(trifluoromethyl)pyridin-2-yl]pyrido[2,3-b]pyrazin-8-amine]	< 1 µM
CS(=O)(=O)c1ccc(Nc2ccnc3nc(-c4nnccc4C(F)(F)F)cnc23)nc1 [Compound 47, N-[5-(methylsulfonyl)-2-pyridinyl]-3-[4-(trifluoromethyl)-3-pyridazinyl]pyrido[2,3-b]pyrazin-8-amine]	< 1 µM
FC(F)(F)c1ccc(Nc2ccnc3nc(-c4nnc(NCCCCN5CCCC5)cc4C(F)(F)F)cnc23)nc1 [Compound 84, 3-{6-[(4-pyrrolidin-1-ylbutyl)amino]-4-(trifluoromethyl)pyridazin-3-yl}-N-[5-(trifluoromethyl)pyridin-2-yl]pyrido[2,3-b]pyrazin-8-amine]	< 1 µM
CCCOCCNc1cc(C(F)(F)F)c(-c2cnc3c(Nc4ccc(C(F)(F)F)cn4)ccnc3n2)nn1 [Compound 52, 3-[6-[(2-propoxyethyl)amino]-4-(trifluoromethyl)pyridazin-3-yl]-N-[5-(trifluoromethyl)pyridin-2-yl]pyrido[2,3-b]pyrazin-8-amine]	< 1 µM
C#CCN(C)c1cc(C(F)(F)F)c(-c2cnc3c(Nc4ccc(C(F)(F)F)cn4)ccnc3n2)nn1 [Compound 125, 3-{6-[methyl(prop-2-yn-1-yl)amino]-4-(trifluoromethyl)pyridazin-3-yl}-N-[5-(trifluoromethyl)pyridin-2-yl]pyrido[2,3-b]pyrazin-8-amine]	< 1 µM
FC(F)(F)c1ccc(Nc2ccnc3nc(-c4nnc(NCc5cccnc5)cc4C(F)(F)F)cnc23)nc1 [Compound 78, 3-{6-[(pyridin-3-ylmethyl)amino]-4-(trifluoromethyl)pyridazin-3-yl}-N-[5-(trifluoromethyl)pyridin-2-yl]pyrido[2,3-b]pyrazin-8-amine]	< 1 µM
CCCCN(C)c1cc(C(F)(F)F)c(-c2cnc3c(Nc4ccc(C(F)(F)F)cn4)ccnc3n2)nn1 [Compound 122, 3-{6-[butyl(methyl)amino]-4-(trifluoromethyl)pyridazin-3-yl}-N-[5-(trifluoromethyl)pyridin-2-yl]pyrido[2,3-b]pyrazin-8-amine]	< 1 µM
NC(=O)c1cc(C(F)(F)F)c(-c2cnc3c(Nc4ccc(C(F)(F)F)cn4)ccnc3n2)nn1 [Compound 60, 5-(trifluoromethyl)-6-(8-{[5-(trifluoromethyl)pyridin-2-yl]amino}pyrido[2,3-b]pyrazin-3-yl)pyridazine-3-carboxamide]	< 1 µM
CC1CCN1c1cc(C(F)(F)F)c(-c2cnc3c(Nc4ccc(C(F)(F)F)cn4)ccnc3n2)nn1 (stereo not drawn) [Compound 189, 3-[6-(2-methylazetidin-1-yl)-4-(trifluoromethyl)pyridazin-3-yl]-N-[5-(trifluoromethyl)pyridin-2-yl]pyrido[2,3-b]pyrazin-8-amine]	< 1 µM
CCNc1cc(C(F)(F)F)c(-c2cnc3c(Nc4ccc(C(F)(F)F)cn4)ccnc3n2)nn1 [Compound 101, 3-[6-(ethylamino)-4-(trifluoromethyl)pyridazin-3-yl]-N-[5-(trifluoromethyl)pyridin-2-yl]pyrido[2,3-b]pyrazin-8-amine]	< 1 µM
CCOC(=O)CN(C)c1cc(C(F)(F)F)c(-c2cnc3c(Nc4ccc(C(F)(F)F)cn4)ccnc3n2)nn1 [Compound 187, ethyl N-methyl-N-[5-(trifluoromethyl)-6-(8-{[5-(trifluoromethyl)pyridin-2-yl]amino}pyrido[2,3-b]pyrazin-3-yl)pyridazin-3-yl]glycinate]	< 1 µM
CN(CCO)c1cc(C(F)(F)F)c(-c2cnc3c(Nc4ccc(C(F)(F)F)cn4)ccnc3n2)nn1 [Compound 135, 2-{methyl[5-(trifluoromethyl)-6-(8-{[5-(trifluoromethyl)pyridin-2-yl]amino}pyrido[2,3-b]pyrazin-3-yl)pyridazin-3-yl]amino}ethanol]	< 1 µM
CCN(CCO)c1cc(C(F)(F)F)c(-c2cnc3c(Nc4ccc(C(F)(F)F)cn4)ccnc3n2)nn1 [Compound 194]	< 1 µM
CC(CO)Nc1cc(C(F)(F)F)c(-c2cnc3c(Nc4ccc(C(F)(F)F)cn4)ccnc3n2)nn1 (stereo not drawn) [Compound 117, 2-{[5-(trifluoromethyl)-6-(8-{[5-(trifluoromethyl)pyridin-2-yl]amino}pyrido[2,3-b]pyrazin-3-yl)pyridazin-3-yl]amino}propan-1-ol]	< 1 µM
OCCNc1cc(C(F)(F)F)c(-c2cnc3c(Nc4ccc(C(F)(F)F)cn4)ccnc3n2)nn1 [Compound 168, 2-{[5-(trifluoromethyl)-6-(8-{[5-(trifluoromethyl)pyridin-2-yl]amino}pyrido[2,3-b]pyrazin-3-yl)pyridazin-3-yl]amino}ethanol]	< 1 µM
